This note sets out measurements from article PMC6522510 (Nature Communications, 2019).

What all share (assay): cells
What all share (design): species or system AML cell lines (8); Secondary HTS, 10-point dose-response in triplicate, Cell Titer Glo viability, four-parameter fit EC50
In general terms: ATP-based viability assays read luminescence as a measure of living cells.

One test deals with MV4-11. To be noted: Homo sapiens, MV4-11, 72 h, read-out: MV4-11.
The subject of the next test is CMK. Conditions: Homo sapiens, CMK, 72 h, read-out: CMK.
The next test deals with CMS. Conditions: 72 h, read-out: CMS.
For another test, the system named is MOLM-13. Conditions: Homo sapiens, MOLM-13, 72 h, read-out: MOLM-13.
A further test has as its system M07e. Conditions: M-07e, 72 h, read-out: M07e.
The test system of another test is CHRF288-11. Conditions: 72 h, read-out: CHRF288-11.
For another test, the system named is U937. To be noted: Homo sapiens, U-937, 72 h, read-out: U937.
In the next test the test system is ML-2. Conditions: Homo sapiens, ML-2, 72 h, read-out: ML-2.

Molecules are shown by their SMILES.

Consider `CCOC(=O)C1=C(C)NC2=C(C(=O)CC(C)(C)C2)C1c1ccc(-c2ccccc2)cc1` (stereo not drawn) [SJ000834140, ITD-1], for which the EC50 in the test with MV4-11, in the test on CMK, in the test on CMS, with MOLM-13, with M07e and with CHRF288-11 was more than 10 µM in each case. Besides, the EC50 in the test with U937 and with ML-2 was more than 10 µM in each case.

Take `COc1ccc(Cn2ccc3ccc(C(=O)NO)cc32)cc1` [SJ000833836, PCI 34051]: the EC50 with MV4-11 is more than 10 µM; in the test with CMK, more than 10 µM; in the test on CMS it was 6.8 µM; in the test on MOLM-13 it was more than 10 µM; with M07e it was more than 10 µM; with CHRF288-11, more than 10 µM. The EC50 in the test on U937 and in the test with ML-2 was more than 10 µM each time.

`Cc1ccc(S(=O)(=O)n2c(N)nc3ccccc32)cc1` [SJ000042554, NODINITIB-1]: the EC50 with MV4-11, in the test with CMK, in the test on CMS, with MOLM-13, in the test with M07e and with CHRF288-11 was more than 10 µM in each case. The EC50 in the test on U937 and in the test on ML-2 was more than 10 µM in each case.

As to `Nc1ncn([C@@H]2O[C@H](CO)[C@@H](O)[C@H]2O)c(=O)n1` [SJ000285227, 5-AZACYTIDINE], the EC50 was more than 10 µM with MV4-11; 8 µM in the test on CMK; 6.83 µM with CMS; 4.5 µM in the test with MOLM-13; more than 10 µM in the test on M07e; more than 10 µM in the test with CHRF288-11. In addition, the EC50 in the test with U937 and in the test with ML-2 was more than 10 µM each time.

Take `Nc1ncnc2c1ncn2[C@@H]1O[C@H](C[C@@H](N)CC[C@H](N)C(=O)O)[C@@H](O)[C@H]1O` [SINEFUNGIN]: the EC50 with MV4-11, in the test on CMK, in the test on CMS, in the test on MOLM-13, in the test with M07e and in the test on CHRF288-11 was more than 10 µM in each case. Also, the EC50 in the test with U937 and in the test with ML-2 was more than 10 µM in each case.

For the molecule `CCN1CCN(CC(=O)Nc2ccc(-c3cccc4c(=O)cc(N5CCOCC5)oc34)c3sc4ccccc4c23)CC1` [SJ000834141, KU-0060648], the EC50 in the test with MV4-11 was more than 10 µM; in the test with CMK, 0.27 µM; in the test on CMS, 2.8 µM; in the test on MOLM-13 it was 0.47 µM; in the test on M07e it was 4 µM; with CHRF288-11 it was 0.78 µM. The results for the EC50 with U937 and in the test with ML-2 were 3 µM and 0.43 µM, respectively.

Consider `OC[C@H]1NC[C@H](O)[C@@H](O)[C@H]1O`, for which the EC50 with MV4-11, in the test on CMK, in the test on CMS, with MOLM-13, with M07e and with CHRF288-11 was more than 10 µM each time. The EC50 in the test on U937 and in the test on ML-2 was more than 10 µM in each case.

In the case of `Nc1ncnc2c1ncn2[C@@H]1O[C@H](C(=O)N2CCN(CC(=O)Nc3cccc4c3CNC4=O)CC2)[C@@H](O)[C@H]1O` [SJ000785896, EB-47], the EC50 with MV4-11, with CMK, in the test with CMS, in the test on MOLM-13, in the test on M07e and in the test on CHRF288-11 was more than 10 µM in each case. Besides, the EC50 in the test with U937 and in the test with ML-2 was more than 10 µM throughout.

Regarding `Cc1ccc(S(=O)(=O)/C=C/C#N)cc1` [SJ000834165, BAY 11-7082], the EC50 turned out to be 1.8 µM with MV4-11; 4.5 µM with CMK; 3.6 µM in the test with CMS; 1.3 µM with MOLM-13; 3.3 µM in the test with M07e; 1.8 µM in the test with CHRF288-11. Further, the EC50 in the test on U937 stood at 0.5 µM; in the test on ML-2, 0.68 µM.

Take `C[C@]1(c2nc3c(C(N)=O)cccc3[nH]2)CCCN1` [VELIPARIB]: the EC50 with MV4-11, in the test with CMK, with CMS, in the test on MOLM-13, in the test on M07e and with CHRF288-11 was more than 10 µM each time. Also, the EC50 in the test with U937 and with ML-2 was more than 10 µM each time.

Take `Cc1ccc(Nc2nccc(N(C)c3ccc4c(C)n(C)nc4c3)n2)cc1S(N)(=O)=O` [PAZOPANIB]: the EC50 with MV4-11, in the test with CMK, in the test on CMS, with MOLM-13, with M07e and in the test with CHRF288-11 was more than 10 µM each time. Moreover, the EC50 in the test on U937 and with ML-2 was more than 10 µM throughout.

With `COc1cc(N2CCC(N3CCN(C)CC3)CC2)ccc1Nc1ncc(Cl)c(Nc2ccccc2S(=O)(=O)C(C)C)n1` [SJ000565231, NVP-TAE684], the EC50 in the test with MV4-11 was 0.25 µM; with CMK, 0.46 µM; in the test on CMS, more than 10 µM; with MOLM-13, 0.29 µM; in the test with M07e it was 3.8 µM; with CHRF288-11, 3.6 µM. For the same molecule, the EC50 in the test with U937 was more than 10 µM; in the test with ML-2 it was 0.36 µM.

Take `C=CC(=O)Nc1cccc(Nc2nc(Nc3ccc(OCCOC)cc3)ncc2F)c1` [SJ000833882, CC-292 (AVL-292)]: the EC50 was more than 10 µM in the test with MV4-11; 4 µM in the test with CMK; more than 10 µM with CMS; more than 10 µM with MOLM-13; 9.5 µM in the test on M07e; more than 10 µM with CHRF288-11. The values for the EC50 with U937 and in the test on ML-2 were 4.8 µM and more than 10 µM, respectively.

For the molecule `Cn1cc(/C=C/C(=O)c2cccc(F)c2)cc1/C=C/C(=O)NO` [SJ000784269, MC1568], the EC50 is more than 10 µM with MV4-11; more than 10 µM with CMK; more than 10 µM in the test on CMS; more than 10 µM in the test on MOLM-13; 0.456 µM in the test with M07e; 4.9 µM with CHRF288-11. Besides, the EC50 was 3.4 µM in the test with U937 and 4.3 µM with ML-2.

With `CC(C)(C)c1ccc(S(=O)(=O)/C=C/C#N)cc1` [SJ000287676, BAY 11-7085], the EC50 in the test with MV4-11 is 1.4 µM; in the test on CMK, 3.9 µM; in the test with CMS, 3.1 µM; in the test with MOLM-13, 1.5 µM; with M07e, 3.2 µM; in the test on CHRF288-11, 1.4 µM. For the same molecule, the EC50 amounted to 0.93 µM in the test with U937 and 1 µM in the test on ML-2.

In the case of `Cc1nn(C)c(C)c1C(=O)N1CCN(Cc2nc3ccccc3n2CC(C)(C)C)CC1` [SJ000796025, FTASE INHIBITOR III], the EC50 is more than 10 µM in the test on MV4-11; 3.1 µM in the test with CMK; more than 10 µM in the test with CMS; more than 10 µM with MOLM-13; more than 10 µM in the test on M07e; more than 10 µM with CHRF288-11. Also, the EC50 in the test on U937 and with ML-2 was more than 10 µM throughout.

Consider `CC(C)(C)c1nc(-c2cccc(NS(=O)(=O)c3c(F)cccc3F)c2F)c(-c2ccnc(N)n2)s1` [DABRAFENIB], for which the EC50 with MV4-11, with CMK, with CMS, in the test on MOLM-13, in the test with M07e and with CHRF288-11 was more than 10 µM in each case. In addition, the EC50 with U937 and in the test on ML-2 was more than 10 µM throughout.

Take `COc1cc(O)c2c(c1)/C=C/C[C@H](O)[C@H](O)C(=O)/C=C\C[C@H](C)OC2=O` [SJ000773172, (5Z)-7-OXOZEAENOL]: the EC50 in the test on MV4-11 is more than 10 µM; in the test with CMK, 0.37 µM; in the test on CMS, 7.3 µM; in the test on MOLM-13, more than 10 µM; in the test on M07e, 0.84 µM; with CHRF288-11 it was 2.1 µM. In addition, the EC50 was determined as 6.6 µM in the test on U937 and 5.5 µM in the test with ML-2.

On to `O=C(c1ccc(Cl)cc1Cl)n1nnc2ccccc21` [SJ000142379, ITSA1], for which the EC50 with MV4-11 was more than 10 µM; with CMK, more than 10 µM; in the test with CMS, more than 10 µM; in the test on MOLM-13 it was 5.3 µM; with M07e, more than 10 µM; with CHRF288-11 it was 6.1 µM. For the same molecule, the EC50 was more than 10 µM with U937 and 6.2 µM with ML-2.

On to `CN1CCN(c2cc(C(=O)Nc3ccc4c(c3)-c3c(c(C(N)=O)nn3-c3ccc(F)cc3)CC4)c(Cl)cn2)CC1` [SJ000834153, PHA 408], for which the EC50 with MV4-11 is more than 10 µM; in the test on CMK it was more than 10 µM; in the test with CMS it was more than 10 µM; in the test on MOLM-13 it was more than 10 µM; with M07e, 5.2 µM; with CHRF288-11, more than 10 µM. For the same molecule, the EC50 in the test on U937 was 9.2 µM; in the test on ML-2, more than 10 µM.

As for `CC(=O)Nc1ccc(NC(=S)NC(=O)c2ccc(C(C)(C)C)cc2)cc1` [SJ000784260, TENOVIN-1], the EC50 was more than 10 µM in the test with MV4-11; more than 10 µM in the test with CMK; 0.77 µM in the test on CMS; more than 10 µM in the test on MOLM-13; more than 10 µM with M07e; more than 10 µM with CHRF288-11. Besides, the EC50 in the test with U937 and with ML-2 was more than 10 µM throughout.
